# Reference: patent US20230242616A1, “CHEMOKINE-SELECTIVE CXCR4 ECTODOMAIN-DERIVED (POLY)PEPTIDE” (Ludwig-Maximilians-Universität München, priority 2020, published 2023)
# “Also recorded” adds a separate entry of the source. Where two headings read alike, the source gives them in different places. Where a SMILES comes first, the peptide text is derived from it. [ ]: non-standard residue; d: D form. 12Ado = NCCCCCCCCCCCC(=O)O; Aoc = NCCCCCCCC(=O)O; Ahx = NCCCCCC(=O)O; AEA = NCCOCC(=O)O
# Tests used:
# [1] = system: primary mouse spleen B lymphocytes; assay: Transwell chemotaxis of B cells elicited by MIF; type: cell-based; details: 16 nM MIF
# Description: Chemotaxis analysis of murine B cells. A Transwell-based assay was used as described previously^34. Briefly, splenic B cells were isolated by negative depletion using a Pan B Cell Isolation Kit (Miltenyi Biotec. Bergisch Gladbach, Germany). Purity of the cells was between 95 and 99%. […] Chemotaxis was followed for 4 h at 37° C. in a humidified atmosphere of 5% CO2. Migrated cells were counted by flow cytometry using CountBright™ Absolute Counting Beads (Molecular Probes-Invitrogen).
# MIF = target: T1, MIF (Homo sapiens, UniProt P14174); assay: Fluorescence spectroscopic titration, binding to MIF
# T1 construct: made in house
# T1 sequence (P14174 2-115): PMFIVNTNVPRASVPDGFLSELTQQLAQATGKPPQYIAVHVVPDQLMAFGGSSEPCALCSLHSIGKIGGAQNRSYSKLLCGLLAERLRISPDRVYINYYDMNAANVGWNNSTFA
# Description: (§1) Fluorescence spectroscopy. Fluorescence spectroscopic titrations were performed as described^28, 32. Fluorescence spectra were recorded using a JASCO FP-6500 fluorescence spectrophotometer. […] Apparent KD values (app. KD) were calculated assuming a 1/1 binding model^32.
# [2] = system: primary human monocyte-derived macrophages; assay: Dil-LDL uptake / foam cell formation, MIF-mediated; type: cell-based
# Description: Dil-LDL uptake/foam cell formation. […] After washing with imaging solution (MEM without phenol red containing 30 mM HEPES, 0.5 g/L NaHCO3, pH 7.4, and 0.2% BSA), cells were exposed to 50 μg/mL 1,1′-dioctadecyl-3,3,3′3′-tetra-methylindocarbocyanine-labeled LDL (Dil-LDL) for 30 min at 4° C. followed by incubation at 37° C. for 20 min. Cells were washed with ice-cold imaging solution (pH 3.5), fixed, and counter-stained with Hoechst 33258.
# [3] = Solubility / biophysical properties of next generation mimics
# CXCL12 = target: T2, CXCL12 (Homo sapiens, UniProt P48061); assay: Fluorescence spectroscopic titration, binding to CXCL12
# T2 construct: purchased Peprotech (or a gift of Dr. von Hundelshausen, LMU Munich)
# T2 sequence (P48061 22-93): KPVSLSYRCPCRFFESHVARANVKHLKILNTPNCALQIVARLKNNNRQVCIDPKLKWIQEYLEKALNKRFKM
# Description: as §1
# [4] = Estimated solubility index by CD spectroscopy; type: physicochemical
# Description: Circular dichroism (CD) spectroscopy. […] Far-UV CD measurements were carried out between 195 and 250 nm. The response time was set at 1 s, intervals at 0.1 nm, and bandwidth at 1 nm. All spectra were measured at RT and represent an average of three recorded spectra. Scans were recorded for the ectodomain mimic peptides at a concentration of 1-20 μM in 10 mM sodium phosphate buffer, pH 7.4, containing 1% HFIP, following dilution of freshly made peptide stock solution in HFIP (4° C.) into the buffer-containing cuvette. […] The background spectrum of buffer/1% HFIP alone was subtracted from the spectra of the peptides.
# [5] = system: human monocyte-derived macrophages; details: read-out: IC50 of MIF-triggered Dil-oxLDL uptake; lower threshold of effect size roughly 50%
# human monocytes = assay: 3D migration of monocytes elicited by MIF (time-lapse microscopy); type: cell-based
# Source text: Isolation of human peripheral blood-derived monocytes. Human peripheral blood-derived monocytes were isolated as described^14. Briefly, blood was collected from healthy donors or buffy coat obtained from the blood bank of Munich University Hospital, mixed 1:1 with PBS, and PBMCs isolated by Ficoll-Paque Plus gradient (GE Healthcare). Monocytes were purified by negative depletion using the Monocyte Isolation Kit II (Miltenyi). Monocyte purity was verified by flow cytometry using an anti-CD14 antibody (Miltenyl) and was 95-98%. […] The isolation of PBMCs from donor blood was approved by the local ethics committee of LMU Munich. 3D migration of human peripheral blood-derived monocytes by time-lapse microscopy. The 3D-migration behavior of human monocytes was assessed by time-lapse microscopy and individual cell tracking using the 3D chemotaxis μ-Slide system from Ibidi GmbH (Munich, Germany), adapting the established Ibidi dendritic cell protocol for human monocytes. […] Cell motility was monitored performing time-lapse imaging every 1 min at 37° C. for 2 h using a Leica inverted DMi8-Life Cell Imaging System equipped with a DMC2900 Digital Microscope Camera with CMOS sensor and live cell-imaging software (Leica Microsystems, Wetzlar, Germany). Images were imported as stacks to ImageJ software and analyzed with the manual tracking and chemotaxis/migration tools (Ibidi GmbH).
# [6] = read-out: Alexa-488-MIF/ngm app. Kd (±SD), aqueous 1 × b, pH 7.4, 1% HFIP
# [7] = Alexa-488-MIF/ngm app. Kd (±SD), aqueous 1 × b, pH 7.4, 1% HFIP
# [8] = Fluos-ngm/MIF app. Kd (±SD), aqueous 1 × b, pH 7.4, 1% HFIP
compound,measurement,setting,value
CC[C@H](C)[C@H](NC(=O)[C@H](Cc1ccc(O)cc1)NC(=O)[C@H](CCCNC(=N)N)NC(=O)[C@H](CC(=O)O)NC(=O)CCCCCCCCCCCNC(=O)COCCOCCNC(=O)[C@H](CCCCN)NC(=O)[C@H](CS)NC(=O)[C@H](CC(C)C)NC(=O)[C@H](Cc1ccccc1)NC(=O)[C@H](CC(N)=O)NC(=O)CNC(=O)[C@H](Cc1ccccc1)NC(=O)[C@H](Cc1ccc(O)cc1)NC(=O)[C@H](Cc1c[nH]c2ccccc12)NC(=O)[C@H](CC(N)=O)NC(=O)[C@H](C)NC(=O)[C@@H](NC(=O)[C@H](C)NC(=O)[C@@H](N)CC(=O)O)C(C)C)C(=O)N[C@@H](CS)C(=O)N[C@@H](CC(=O)O)C(=O)N[C@@H](CCCNC(=N)N)C(=O)N[C@@H](Cc1ccccc1)C(=O)N[C@@H](Cc1ccc(O)cc1)C(=O)N1CCC[C@H]1C(=O)N[C@@H](CC(N)=O)C(=O)N[C@@H](CC(=O)O)C(=O)N[C@@H](CC(C)C)C(=O)N[C@@H](Cc1c[nH]c2ccccc12)C(=O)N[C@H](C(N)=O)C(C)C [msR4M-L2],inhibition of MIF-mediated B-cell chemotaxis,[1],inhibits MIF-triggered B-lymphocyte chemotaxis; also recorded: fully blocked
CC(C)C[C@H](NC(=O)[C@H](CC(=O)O)NC(=O)[C@H](CC(N)=O)NC(=O)[C@@H]1CCCN1C(=O)[C@H](Cc1ccc(O)cc1)NC(=O)[C@H](Cc1ccccc1)NC(=O)[C@H](CCCNC(=N)N)NC(=O)[C@H](CC(=O)O)NC(=O)CCCCCCCCCCCNC(=O)CCCCCNC(=O)[C@H](CCCCN)NC(=O)[C@H](CS)NC(=O)[C@H](CC(C)C)NC(=O)[C@H](Cc1ccccc1)NC(=O)[C@H](CC(N)=O)NC(=O)CNC(=O)[C@H](Cc1ccccc1)NC(=O)[C@H](Cc1ccc(O)cc1)NC(=O)[C@@H](N)Cc1c[nH]c2ccccc12)C(=O)N[C@@H](Cc1c[nH]c2ccccc12)C(N)=O [msR4M-L3] (H-WYFGNFLCK[Ahx][12Ado]DRFYPNDLW-NH2),Kd,MIF; [6],11.7 nM
same,Kd,"MIF; read-out: Binding affinity (fluorescence spectroscopic titration) Kd, Table 7, reconnected short mimics",14 nM
same,Kd,"MIF; read-out: Fluos-ngm/MIF app. Kd (±SD), aqueous 1 × b, pH 7.4, 1% HFIP",44.4 nM
same,Atherogenic inhibitory activity (Dil-LDL uptake),[2],80% of % of full-length msR4M-L1
same,solubility properties (in words),[3],less favorable solubility properties
same,binding to CXCL12 (in words),CXCL12,essentially no binding affinity for CXCL12
CC(C)C[C@H](NC(=O)[C@H](CC(=O)O)NC(=O)[C@H](CC(N)=O)NC(=O)[C@@H]1CCCN1C(=O)[C@H](Cc1ccc(O)cc1)NC(=O)[C@H](Cc1ccccc1)NC(=O)[C@H](CCCNC(=N)N)NC(=O)[C@H](CC(=O)O)NC(=O)CCCCCCCNC(=O)[C@H](CCCCN)NC(=O)[C@H](CS)NC(=O)[C@H](CC(C)C)NC(=O)[C@H](Cc1ccccc1)NC(=O)[C@H](CC(N)=O)NC(=O)CNC(=O)[C@H](Cc1ccccc1)NC(=O)[C@H](Cc1ccc(O)cc1)NC(=O)[C@@H](N)Cc1c[nH]c2ccccc12)C(=O)N[C@@H](Cc1c[nH]c2ccccc12)C(N)=O [msR4M-L4] (H-WYFGNFLCK[Aoc]DRFYPNDLW-NH2),Kd,MIF; [7],43.2 nM
same,Kd,MIF; [8],11.9 nM
same,Atherogenic inhibitory activity (Dil-LDL uptake),[2],80% of % of full-length msR4M-L1
same,solubility properties (in words),[3],less favorable solubility properties
same,binding to CXCL12 (in words),CXCL12,essentially no binding affinity for CXCL12
CC(C)C[C@H](NC(=O)[C@H](CC(=O)O)NC(=O)[C@H](CC(N)=O)NC(=O)[C@@H]1CCCN1C(=O)[C@H](Cc1ccc(O)cc1)NC(=O)[C@H](Cc1ccccc1)NC(=O)[C@H](CCCNC(=N)N)NC(=O)[C@H](CC(=O)O)NC(=O)COCCNC(=O)COCCNC(=O)[C@H](CCCCN)NC(=O)[C@H](CS)NC(=O)[C@H](CC(C)C)NC(=O)[C@H](Cc1ccccc1)NC(=O)[C@H](CC(N)=O)NC(=O)CNC(=O)[C@H](Cc1ccccc1)NC(=O)[C@H](Cc1ccc(O)cc1)NC(=O)[C@@H](N)Cc1c[nH]c2ccccc12)C(=O)N[C@@H](Cc1c[nH]c2ccccc12)C(N)=O [msR4M-L5] (H-WYFGNFLCK[AEA][AEA]DRFYPNDLW-NH2),Estimated solubility index by CD spectroscopy,[4],>2× compared to × compared to msR4M-L1
same,Kd,MIF; [7],41.8 nM
same,Kd,"MIF; Binding affinity (fluorescence spectroscopic titration) Kd, Table 8, mimics with enhanced solubility",30 to 40 nM
same,Kd,MIF; [8],14.3 nM
same,Atherogenic inhibitory activity (Dil-LDL uptake),[2],30% of % of full-length msR4M-L1
same,IC50,[5],69.7 nM
same,solubility properties (in words),[3],favorable biophysical properties such as solubility
same,binding to CXCL12 (in words),CXCL12,essentially no binding propensity for CXCL12
same,effect on MIF-triggered 3D monocyte migration,human monocytes,inhibit the MIF-mediated monocytes migration
CC(C)C[C@H](NC(=O)[C@H](CC(=O)O)NC(=O)[C@H](CC(N)=O)NC(=O)[C@@H]1CCCN1C(=O)[C@H](Cc1ccc(O)cc1)NC(=O)[C@H](Cc1ccccc1)NC(=O)[C@H](CCCNC(=N)N)NC(=O)[C@H](CC(=O)O)NC(=O)CNC(=O)CNC(=O)CNC(=O)[C@H](CCCCN)NC(=O)[C@H](CS)NC(=O)[C@H](CC(C)C)NC(=O)[C@H](Cc1ccccc1)NC(=O)[C@H](CC(N)=O)NC(=O)CNC(=O)[C@H](Cc1ccccc1)NC(=O)[C@H](Cc1ccc(O)cc1)NC(=O)[C@@H](N)Cc1c[nH]c2ccccc12)C(=O)N[C@@H](Cc1c[nH]c2ccccc12)C(N)=O [msR4M-LG3],Kd,MIF; [6],> 5000 nM
H-WYFGNFLCKDDDDRFYPNDLW-NH2 [msR4M-LD3],Estimated solubility index by CD spectroscopy,[4],>2× compared to × compared to msR4M-L1
same,Kd,MIF; [6],247 nM
same,IC50,[5],1.4 nM
same,solubility properties (in words),[3],performing most superior
same,binding to CXCL12 (in words),CXCL12,essentially no binding propensity for CXCL12
same,effect on MIF-triggered 3D monocyte migration,human monocytes,inhibit the MIF-mediated monocytes migration
same,IC50,"human monocytes; 3D migration, one experiment, read-out: IC50 of MIF-mediated monocyte migration",18.4 nM
H-WYFGNFLCKKKKDRFYPNDLW-NH2 [msR4M-LK3],solubility properties (in words),[3],very good solubility properties
same,binding to CXCL12 (in words),CXCL12,good binding affinity for CXCL12
H-WYFGNFLCKRRRDRFYPNDLW-NH2 [msR4M-LR3],Estimated solubility index by CD spectroscopy,[4],>2× compared to × compared to msR4M-L1
same,solubility properties (in words),[3],very good solubility properties
same,binding to CXCL12 (in words),CXCL12,good binding affinity for CXCL12
